The record followed here is paper PMC12501004.

The nature of the series: intramolecular Trp triplet quenching by Cys (photoinduced electron transfer, contact formation) in full-length measles virus NTAIL single C-W variants; nanosecond transient absorption (289 nm pump, 458 nm probe); tau_CW from 1/tau_CW = 1/tau_obs - 1/tau_0. As to conditions: aqueous buffer: 15 mM Tris, 150 mM NaCl, 1 mM TCEP, pH 7.6, N2O-saturated; 0.1 mM; 20.0 °C; scale: us.

For the substance “H-GSTTEDKICRAVGPRQAQVSFLHGDQSENELPRLGGKEDRRVKQSRGEARESWRETGPSRASDARAAHLPTGTPLDIDTASESSQDPQDSRRSADALLRLQAMAGISEEQGSDTDTPIVYNDRNLLD-OH”, the ring closure, rate came out at 6.63.
The substance “H-GSTTEDKISRAVGPRQAQVSFLHGDQCENELPRLGGKEDRRVKQSRGEARESWRETGPSRASDARAAHLPTGTPLDIDTASESSQDPQDSRRSADALLRLQAMAGISEEQGSDTDTPIVYNDRNLLD-OH” had a ring closure, rate of 3.1.
On to “H-GSTTEDKISRAVGPRQAQVSFLHGDQSENELPRLGGKEDRRVKQSRGEARESWRETGPSRASDARAAHLPTGTPLDIDTASESCQDPQDSRRSADALLRLQAMAGISEEQGSDTDTPIVYNDRNLLD-OH”, for which the ring closure, rate is 3.21.
As for “H-GSTTEDKISRAVGPRQAQVSFLHGDQSENELPRLGGKEDRRVKQSRGEARESYRETGPSRASDARAAHLPTGTPLDIDTASESCQDPQDSRRSADALLRLQAMAGISEEQGSDTDTPIVWNDRNLLD-OH”, the figure is 7.6; as for “H-GSTTEDKISRAVGPRQAQVSFLHGDQSENELPRLGGKEDRRVKQSRGEARESYRETGPSRASDARAAHLPTGTPLDIDTASESSQDPQDCRRSADALLRLQAMAGISEEQGSDTDTPIVWNDRNLLD-OH”, 2.76.
